Results as given in PubChem BioAssay AID330 (DTP/NCI, 2004).
Several values for one entry are separate records, joined by “and”; a condition that tells them apart may be missing. Equal values may be shown once. Toxic doses and inconclusive results are not listed. How the source made its calls: active means survival T/C of 150% or more; inactive means T/C below 125% in these data. Peptide text beside a SMILES is read from it. * marks the point of attachment. Cbz = O=C(OCc1ccccc1)*

Tested on: P388 leukemia ip, CD2F1 mice, survival T/C
Test: NCI In Vivo Anticancer Drug Screen. Data for tumor model P388 Leukemia (intraperitoneal) in CD2F1 (CDF1) mice
Conditions: endpoint: median survival time, higher = longer survival
In short: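 Mice carrying the transplanted tumor received test compound or vehicle. Survival was recorded in each group, and the value is the treated-group measurement divided by that of the vehicle-treated control group.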

[1] = dose: 50.0 mg/kg/injection, schedule: Q01DX009 (ip), vehicle: Klucel (hydroxypropylcellulose) (HPC)
[2] = dose: 100.0 mg/kg/injection, schedule: Q01DX009 (ip), vehicle: Klucel (hydroxypropylcellulose) (HPC)
[3] = dose: 200.0 mg/kg/injection, schedule: Q01DX009 (ip), vehicle: Klucel (hydroxypropylcellulose) (HPC)
[4] = dose: 100.0 mg/kg/injection, schedule: Q04DX003 (ip), vehicle: saline with Tween-80
[5] = dose: 50.0 mg/kg/injection, schedule: Q01DX005 (ip), vehicle: saline with Tween-80
[6] = dose: 100.0 mg/kg/injection, schedule: Q01DX005 (ip), vehicle: saline with Tween-80
[7] = dose: 60.0 mg/kg/injection, schedule: Q01DX005 (ip), vehicle: saline with Tween-80
[8] = dose: 120.0 mg/kg/injection, schedule: Q01DX005 (ip), vehicle: saline with Tween-80
[9] = dose: 240.0 mg/kg/injection, schedule: Q01DX005 (ip), vehicle: saline with Tween-80
[10] = dose: 50.0 mg/kg/injection, schedule: Q01DX005 (ip), vehicle: Klucel (hydroxypropylcellulose) (HPC)
[11] = dose: 100.0 mg/kg/injection, schedule: Q01DX005 (ip), vehicle: Klucel (hydroxypropylcellulose) (HPC)
[12] = dose: 200.0 mg/kg/injection, schedule: Q01DX005 (ip), vehicle: Klucel (hydroxypropylcellulose) (HPC)
[13] = dose: 50.0 mg/kg/injection, schedule: Q01DX009 (ip), vehicle: saline with Tween-80
[14] = dose: 100.0 mg/kg/injection, schedule: Q01DX009 (ip), vehicle: saline with Tween-80
[15] = dose: 200.0 mg/kg/injection, schedule: Q01DX009 (ip), vehicle: saline with Tween-80
[16] = dose: 100.0 mg/kg/injection, schedule: Q01DX009 (ip), vehicle: saline
[17] = dose: 200.0 mg/kg/injection, schedule: Q01DX009 (ip), vehicle: saline

Measured: T/C

CC(O)C(NC(=O)C(Cc1ccc(O)cc1)NC(=O)OCc1ccccc1)C(=O)O (stereo not drawn) (Cbz-Tyr-Thr-OH; configuration not given here)
inactive: dose: 50.0 mg/kg/injection, schedule: Q01DX005 (ip), vehicle: suspension in saline 105 % of control | dose: 100.0 mg/kg/injection, schedule: Q01DX005 (ip), vehicle: suspension in saline 96 % of control | dose: 200.0 mg/kg/injection, schedule: Q01DX005 (ip), vehicle: suspension in saline 111 % of control

CCCCCCCCCCCCCCCC(=O)NC1CC(OC2CC(O)(C(C)=O)Cc3c(O)c4c(c(O)c32)C(=O)c2c(OC)cccc2C4=O)OC(C)C1O (stereo not given)
inactive: dose: 0.75 mg/kg/injection, schedule: Q01DX009 (ip), vehicle: other 111 % of control | dose: 1.5 mg/kg/injection, schedule: Q01DX009 (ip), vehicle: other 98 % of control | dose: 3.0 mg/kg/injection, schedule: Q01DX009 (ip), vehicle: other 113 % of control

NC(=O)CCCCCBr
inactive: [1] 98 % of control | [2] 95 % of control | [3] 90 % of control

N#CC(C#N)=CC(C#N)C#N
inactive: dose: 12.5 mg/kg/injection, schedule: Q01DX005 (ip), vehicle: saline 104 % of control | dose: 25.0 mg/kg/injection, schedule: Q01DX005 (ip), vehicle: saline 101 % of control | dose: 50.0 mg/kg/injection, schedule: Q01DX005 (ip), vehicle: saline 107 % of control and 92 % of control

COC(=O)C1CC2CCCCC2C1C(=O)OC (stereo not given)
inactive: dose: 100.0 mg/kg/injection, schedule: Q04DX003 (ip), vehicle: Klucel (hydroxypropylcellulose) (HPC) 89 % of control | dose: 200.0 mg/kg/injection, schedule: Q04DX003 (ip), vehicle: Klucel (hydroxypropylcellulose) (HPC) 87 % of control | dose: 400.0 mg/kg/injection, schedule: Q04DX003 (ip), vehicle: Klucel (hydroxypropylcellulose) (HPC) 89 % of control

CC(C)CCC(C)C1CCC2C3CC([N+](=O)[O-])=C4CC(OC(=O)c5ccccc5)CCC4(C)C3CCC12C (stereo not given)
inactive: [4] 90 % of control | dose: 200.0 mg/kg/injection, schedule: Q04DX003 (ip), vehicle: saline with Tween-80 90 % of control | dose: 400.0 mg/kg/injection, schedule: Q04DX003 (ip), vehicle: saline with Tween-80 90 % of control

Nc1ccc(Nc2c3ccccc3nc3ccccc23)cc1
inactive: dose: 6.25 mg/kg/injection, schedule: Q04DX003 (ip), vehicle: saline 104 % of control | dose: 12.5 mg/kg/injection, schedule: Q04DX003 (ip), vehicle: saline 100 % of control | dose: 25.0 mg/kg/injection, schedule: Q04DX003 (ip), vehicle: saline 121 % of control

N#CSc1ccc2nc(NC(NC=O)C(Cl)(Cl)Cl)sc2c1 (stereo not given)
inactive: dose: 6.25 mg/kg/injection, schedule: Q01DX009 (ip), vehicle: Klucel (hydroxypropylcellulose) (HPC) 105 % of control | dose: 12.5 mg/kg/injection, schedule: Q01DX009 (ip), vehicle: Klucel (hydroxypropylcellulose) (HPC) 110 % of control | dose: 25.0 mg/kg/injection, schedule: Q01DX009 (ip), vehicle: Klucel (hydroxypropylcellulose) (HPC) 103 % of control

O=Nc1c(=O)[nH]c(O)c2ccccc12
inactive: dose: 25.0 mg/kg/injection, schedule: Q01DX005 (ip), vehicle: saline with Tween-80 100 % of control | [5] 107 % of control | [6] 93 % of control

COC(=O)c1nnn(-c2c(C)cccc2C(C)C)c1C(=O)c1ccccc1
inactive: [7] 100 % of control | [8] 109 % of control | [9] 94 % of control

C#Cc1cccc(N=Cc2cc(Cl)cc(C)c2O)c1
inactive: [5] 88 % of control | [6] 91 % of control | dose: 200.0 mg/kg/injection, schedule: Q01DX005 (ip), vehicle: saline with Tween-80 102 % of control

COC(=O)C(CCC1NCCc2c1[nH]c1ccccc21)(Sc1ccccc1)Sc1ccccc1 (stereo not given)
inactive: dose: 60.0 mg/kg/injection, schedule: Q01DX005 (ip), vehicle: Klucel (hydroxypropylcellulose) (HPC) 108 % of control | dose: 120.0 mg/kg/injection, schedule: Q01DX005 (ip), vehicle: Klucel (hydroxypropylcellulose) (HPC) 105 % of control | dose: 240.0 mg/kg/injection, schedule: Q01DX005 (ip), vehicle: Klucel (hydroxypropylcellulose) (HPC) 103 % of control

Cc1ccc2c(c1)C(O)C(N)CCO2 (stereo not given)
inactive: dose: 100.0 mg/kg/injection, schedule: Q04DX003 (ip), vehicle: saline 100 % of control | dose: 200.0 mg/kg/injection, schedule: Q04DX003 (ip), vehicle: saline 102 % of control

Cc1cc(O)cc2c1c(=O)c1ccccc1n2C
inactive: [7] 100 % of control | [8] 100 % of control | [9] 96 % of control

CCOC(=O)C1Cc2c([nH]c(=O)[nH]c2=O)OC1(C)c1ccccc1 (stereo not given)
inactive: [10] 103 % of control | [11] 98 % of control | [12] 97 % of control

CC(=O)Nn1cnc2c(SCc3ccccc3)ncnc21
inactive: [1] 100 % of control | [13] 100 % of control | [2] 100 % of control | [14] 95 % of control | [4] 95 % of control | [3] 100 % of control | [15] 122 % of control

COc1cc(O)c(O)c(C(C)(C)C)c1
inactive: dose: 3.75 mg/kg/injection, schedule: Q01DX005 (ip), vehicle: saline with Tween-80 103 % of control | dose: 7.5 mg/kg/injection, schedule: Q01DX005 (ip), vehicle: saline with Tween-80 105 % of control | dose: 15.0 mg/kg/injection, schedule: Q01DX005 (ip), vehicle: saline with Tween-80 108 % of control | dose: 30.0 mg/kg/injection, schedule: Q01DX005 (ip), vehicle: saline with Tween-80 116 % of control | [7] 107 % of control | [8] 95 % of control

COc1ccc2c(=O)cc(-c3ccccc3)[nH]c2c1
inactive: dose: 12.5 mg/kg/injection, schedule: Q01DX009 (ip), vehicle: saline 90 % of control | dose: 25.0 mg/kg/injection, schedule: Q01DX009 (ip), vehicle: saline 98 % of control | dose: 50.0 mg/kg/injection, schedule: Q01DX009 (ip), vehicle: saline 114 % of control | dose: 65.0 mg/kg/injection, schedule: Q01DX009 (ip), vehicle: saline 118 % of control | [16] 117 % of control and 118 % of control | [17] 99 % of control

CCOC(=O)C(Cc1ccc(O)cc1)NS(=O)(=O)c1ccc(C)cc1 (stereo not given)
inactive: [13] 98 % of control | [14] 100 % of control | [15] 108 % of control

C[N+](C)(CCCCOc1c(Br)cc(Br)cc1Br)Cc1ccc([N+](=O)[O-])o1
inactive: dose: 12.5 mg/kg/injection, schedule: Q04DX003 (ip), vehicle: Klucel (hydroxypropylcellulose) (HPC) 100 % of control | dose: 25.0 mg/kg/injection, schedule: Q04DX003 (ip), vehicle: Klucel (hydroxypropylcellulose) (HPC) 101 % of control | dose: 50.0 mg/kg/injection, schedule: Q04DX003 (ip), vehicle: Klucel (hydroxypropylcellulose) (HPC) 100 % of control

Cc1cccc(Nc2ncnc3nc[nH]c23)c1
inactive: [10] 100 % of control | [11] 91 % of control | [12] 94 % of control

COc1c[nH]c(CO)cc1=O
inactive: [16] 101 % of control and 104 % of control | [17] 108 % of control and 114 % of control | dose: 400.0 mg/kg/injection, schedule: Q01DX009 (ip), vehicle: saline 99 % of control and 114 % of control
